# Columns and labels:
# Anilocra physodes = experiment: Oral hexaflumuron against infestation with a parasitic isopod (Example 9); format: in vivo, Sea bass (Dicentrarchus labrax)
# Method: In this trial, hexaflumuron was administered orally in order to test the effect against infestations with the parasitic isopod Anilocra physodes in Sea bass (Dicentrarchus labrax).
# 150,000 Sea bass (Dicentrarchus labrax) having an average weight of 2 grams were transferred from a hatchery facility and distributed into 5 cages each containing 30,000 fish. The trial was carried out in a food fish facility in the Mediterranean where the sea water temperature varied in the range of 15.0-25.0°C throughout the trial period.
# Fish in four cages were fed medicated feed at an amount corresponding to 0.5% of the total biomass per day for 6 days, corresponding to 10 mg hexaflumuron/kg fish per day. One week after the medication and subsequently every three weeks the number of parasites on the fish was monitored.
# sea lice = experiment: Injection of hexaflumuron in furunculosis vaccine formulations, sea lice counts after sea water transfer (Example 7); format: in vivo, salmon (Salmo salar); settings: for average number of lice: control group 19.2
# Method: The treatment dosage was 9 mg hexaflumuron per kg fish per day for 10 days. This is indicated by "Groups/Timepoints" in the figure; • Figure 2 relates to the trial in Example 2 that was carried out on Atlantic salmon (Salmo salar). […] The treatment dosage varied between 3 - 9 mg hexaflumuron and 9- 12 mg fluazuron per kg fish per day for 7 days. This is indicated by "Groups/Timepoints" in the diagram. […] The treated groups are compared to an untreated control group. The treatment dosage was 4 mg hexaflumuron per kg fish per day for 5 days. This is indicated by "Groups/Timepoints" in the figure. Cage 2 = controls, Cage 4-6 = treated groups, 16.6.97 = time point for sea transfer and 5.8.97= controls treated by bathing with deltamethrin; • Figure 4 relates to the trial described in Example 5, which was carried out on sea trout (Salmo trutta). […] The treated groups are compared with an untreated control group. The dosage for oral treatment was 4 mg hexaflumuron per kilo fish per day for 5 days, and 5 ppm hexaflumuron as a 30 minute bath treatment. This is indicated by "Groups/Timepoints" in the figure. Cage 1.4 = Controls, cage 1.3 = Oral treatment, cage 1.2 = Bath treatment. […] The treated groups are compared with an untreated control group, and one group that has been treated orally with teflubenzuron (10 mg/kg of teflubenzuron per kg fish per day for 7 days). The dosage for oral treatment was 5.6 mg hexaflumuron per kg fish per day for 7 days, and 5 ppm hexaflumuron as a 30 minute bath treatment. […] End of treatment: 22.10.97, Sea transfer: 23.10.97. T1 = 3 weeks post end of treatment, T2 = 5 weeks post end of treatment, T3 = 9 weeks post end of treatment, T4 = 12 weeks post end of treatment; • Figure 6 relates to the trial in Example 6 at time points 4-6, with the same trial parameters as for Figure 5. T5 = 15 weeks post end of treatment, T6 = 17 weeks post end of treatment. Cage 3 and 4 were treated by bath with deltamethrin after sea lice counting at T4 (12.01.98); • Figure 7 relates to the trial described in Example 7 where salmon were injected on 17.12.97 with two formulations (groups L and R, respectively) of hexaflumuron and a vaccine formulation without hexaflumuron (control). […] The vaccinated fish was transferred to sea water on 09.01.98; • Figure 8 summarises the trial of Example 8 where salmon smolts were injected with 9 different active substances on 08.07.98. Only results for Moxidectin (Mox.), Lufenuron (Luf.) and hexaflumuron in Apoject 1-Fural (Hex.Apo) and in animal oil (Hex.oil) are shown, and • Figure 9 summarises the trial described in Example 10 where salmon were injected on 03.12.97 with 3 different formulations of hexaflumuron (Hexa 1, Hexa 2 and Hexa 3). The fish were transferred to sea water at T0.
# About 80 salmon (Salmo salar) at an average weight of about 80 grams were divided into two groups and injected with two different formulations of hexaflumuron at a dosage of about 50 mg/kg. Both formulations were prepared based upon a vaccine against furunculosis containing inactivated cells of Aeromonas salmonicida subsp. salmonicida. Hexaflumuron was mixed/formulated into the vaccine in two different manners to study the effect of the formulation on the depot effect in the fish and on the stability characteristics of the vaccine emulsions.
# The fish were dosed (injected) while they were in freshwater and 23 days after the administration they were transferred to sea water (mini-cages). In parallel with the two groups, a third group comprising 40 fish of the same origin and size was vaccinated with a conventional vaccine without hexaflumuron. This group was kept in the same tank (freshwater) and cage (sea water) as the "hexaflumuron injected" groups and served as negative control/reference group in respect of sea lice infestations. Prior to the start of the trial, the groups were marked by fin cutting. The water temperature varied between 3.8 and 16.0°C throughout the trial. […]
# [1] = Specific growth rate after sea transfer (Example 5); format: in vivo, sea trout (Salmo trutta); settings: treated groups (oral, bath), after about 13 weeks; control group 0.37%
# Method: About 300 sea trout (Salmo trutta) of an average weight of 160 grams were divided into three groups of 100 fish each. One group was given oral treatment for one week before they were transferred to sea at a daily dosage of 4 mg hexaflumuron per kg fish for 5 days. The second group was treated with a bath treatment using a dosage of 5 ppm hexaflumuron for 30 minutes with a formulation containing 10% hexaflumuron, while the last group remained untreated. The treatments were carried out in fresh water during the last week before the fish were transferred to sea water. In the sea water, the fish were distributed into 3 mini-cages with 100 fish in each. The fish were then exposed to natural sea lice infection. Lice from 6-10 fish from each cage were counted every third week to assess whether there was any difference in the number of lice between the cages. At the end of the trial, i.e. about 13 weeks after the fish had been transferred to sea, the fish in each cage were weighed to check possible differences in SGR. The water temperature varied within the range of 12 - 22°C during the trial.
# After 11 weeks there was no difference between the groups, but the number of lice was very low in all groups, which makes it difficult to determine the length of the protection period. […] The SGR was determined after about 13 weeks. […]
smiles,measurement,setting,value
O=C(NC(=O)c1c(F)cccc1F)Nc1cc(Cl)c(OC(F)(F)C(F)F)c(Cl)c1 [hexaflumuron],parasites found in the treated groups,"Anilocra physodes; one week after the medication period (10 mg/kg fish per day, 6 days), control 0.1 louse",no parasites were found
same,period of effect against Anilocra physodes after medication,Anilocra physodes; oral 10 mg/kg fish per day for 6 days,about 3 weeks
same,average parasites in the treated groups,"Anilocra physodes; three weeks after the medication period, control 0.4 louse",0.15 louse
same,average number of lice,"sea lice; T8, first-named treated group (formulation)",4.8
same,average number of lice,"sea lice; T8, second-named treated group (formulation)",1.8
same,number of sea lice versus control group,"sea lice; T9 and T10, treated groups",significant differences
same,number of lice versus control group,"sea lice; T11, after ALPHA MAX bath of all groups",significantly less lice
same,excellent protection against sea lice infestation after sea water transfer,sea lice; injection about 50 mg/kg,7 months
same,partially protective effect after sea water transfer,sea lice; injection about 50 mg/kg,≤ 10.5 months
same,time after sea water transfer until sea lice were first recorded (T8),"sea lice; injection about 50 mg/kg, two treated groups, control had lice from T5 (126 days)",215 days
same,SGR,[1],0.84 - 0.98%

# Source: patent EP1306084A1, “Compositions for the control of parasitic infestations in fish” (Alpharma AS, priority 1998, dated 1999)
